The source of these data is article PMC10138554, “Insights into the Microbicidal, Antibiofilm, Antioxidant and Toxicity Profile of New O-Aryl-Carbamoyl-Oxymino-Fluorene Derivatives” (International Journal of Molecular Sciences, 2023).

Assay [1] concerns C. albicans ATCC 90029. The experiment in a line: MBC assay, plating on solid medium after MIC reading. Format: cell-based. To be noted: Candida albicans, ATCC90029, read-out: minimum bactericidal concentration (MBC). As to the method:
(§1) The inhibitory activity of the obtained compounds has been assessed on five microbial strains, respectively: E. coli ATCC 25922, P. aeruginosa ATCC 27853, S. aureus ATCC 25923, E. faecalis ATCC 29212 and C. albicans ATCC 90029, in a planktonic and adherent growth state.
(§2) The MB assay was performed after reading the MIC values.

The next assay has as its system E. coli ATCC 25922. The description is as above. Format: cell-based. To be noted: Escherichia coli, ATCC25922, read-out: minimum bactericidal concentration (MBC). As to the method: as §1, §2
Assay [2] relates to E. faecalis ATCC 29212. The assay is described as above. Format: cell-based. To be noted: Enterococcus faecalis, ATCC29212, read-out: minimum bactericidal concentration (MBC). As to the method:
as §1, §2

The subject of the next assay is P. aeruginosa ATCC 27853. Described as above. Format: cell-based. To be noted: Pseudomonas aeruginosa, ATCC27853, read-out: minimum bactericidal concentration (MBC). As to the method:
as §1, §2

In assay [3] the test system is S. aureus ATCC 25923. Described as above. Type of assay: cell-based. The note with it: Staphylococcus aureus, ATCC25923, read-out: minimum bactericidal concentration (MBC). Here is the method:
as §1, §2

In assay [4] the test system is E. faecalis ATCC 29212. Nature of the assay: Anti-biofilm activity assay, purple violet microtiter method. Format: cell-based. To be noted: E. faecalis ATCC 29212 biofilm. Here is the method: as §1
(§3) The anti-biofilm activity assay was performed by the purple violet microtiter method, as previously described, allowing us to determine the minimal biofilm inhibitory concentration (MBEC). The same range of concentrations, as in the MIC assay, i.e., from 5 to 0.009 mg/mL has been tested.

Assay [5] concerns S. aureus ATCC 25923. The description is as above. Format: cell-based, Staphylococcus aureus. The note with it: S. aureus ATCC 25923 biofilm. As to the method:
as §1, §3

Assay [6] concerns C. albicans ATCC 90029. The assay is described as above. The note with it: C. albicans ATCC 90029 biofilm. Type of assay: cell-based, Candida albicans. As to the method: as §1, §3
Assay [7] concerns C. albicans ATCC 90029. The experiment in a line: Flow cytometry (FCM) membrane depolarization, DiBAC4(3). To be noted: subinhibitory concentration tested 2.5 mg/mL, DiBAC4, 18–24 h. Type of assay: cell-based, Candida albicans. Here is the method:
The investigation of potential mechanisms of antimicrobial action by flow cytometry (FCM) was performed on microbial cultures obtained after 18–24 h of microbial cell incubation in the presence of subinhibitory concentrations of the analyzed compounds. Thus, microbial suspensions with a density of approximately 10^6 CFU/mL were prepared in sterile saline phosphate buffer from exponentially growing microbial cultures, obtained on a solid culture medium. Subinhibitory concentrations of the compounds were prepared in Muller–Hinton liquid culture medium and inoculated with an equal amount of microbial suspension and incubated for 18–24 h at 37 °C.
Microbial suspensions inoculated in a liquid medium were used as growth control. After incubation, the DiBAC4 fluorochrome solution [bis-(1,3-dibutylbarbituric acid) trimethinoxonol] Invitrogen/Life Technologies, Carlsbad, was added (0.5 μg/mL).
Fluorescence intensity (FI) was measured with an Accuri C6 plus flow cytometer in the FITC fluorescence channel. Growth control was used to locate the microbial cell population for fluorescence measurements. DiBAC4 dye was used to detect changes in the microbial membrane potential. […] A twofold increased fluorescence intensity (median fluorescence intensity = MFI) was considered to correspond to the depolarized microbial cells. For each subinhibitory concentration, a coloring index (CI) was calculated which represents the ratio of fluorescence intensity (FI) of treated versus untreated cells.

Assay [8] is described as follows: Scavenger activity towards DPPH free radical. Type of assay: biochemical. To be noted: 30 min; for IC50: linear regression over 25–1000 μM, mean ± SD of three, read-out: IC50 by means of DPPH assay. As to the method:
The DPPH (Sigma-Aldrich, Darmstadt, Germany) solution of 0.1 mM concentration was obtained by dissolving 0.0039 g of free radical in 100 mL ethanol, in a volumetric flask. For all determinations, the DPPH solution was freshly prepared and kept in the dark. Ethanol has been chosen since tested compounds were dissolved in ethanol: DMSO = 99:1 (v/v) mixture.
The analyzed compounds were dissolved in 25 mL of ethanol: DMSO = 99:1 (v/v) mixture in a final concentration of 1000 μM (stock solution), from which several concentrations of 25 μM, 50 μM, 75 μM, 100 μM, 250 μM and 500 μM were obtained by successive dilutions.
The determination of the antioxidant activity was based on the Ohnishi M et al. method, quoted by Germano M.P. et al..
[…] The samples were kept at rest in the dark for 30 min [79, 81]. Ethanol was used as a blank in order to measure the absorbance at 515 nm (Jasco V-530 spectrophotometer, Jasco, Japan).
The following formula was used to determine DPPH free radical scavenger activity (%): Inhibition %=Acontrol−Asample/Acontrol×100 where, A = absorbance of the 0.1 mM DPPH solution in the absence (control)/presence (sample) of tested compounds after 30 min.
(§4) For both the above-mentioned methods, the antioxidant activity was expressed as IC50 values (μM) which represent the concentration of each compound for which the scavenging activity of free radicals is 50%. […]

Assay [9] in a line: Scavenger activity towards ABTS•+ free radical. Type of assay: biochemical. The note with it: 6 min; for IC50: linear regression over 25–1000 μM, mean ± SD of three, read-out: IC50 by means of ABTS•+ assay. Here is the method: The method according to Re R. et al. was used to evaluate the scavenger capacity of the free radical.
The ABTS^•+ free radical resulted from the reaction between 2,2′-azinobis-(3-ethylbenzothiazoline-6-sulfonic acid) diammonium salt (7.4 mM) (solution 1) (Sigma-Aldrich, Germany) and potassium persulfate (2.6 mM) (solution 2) (Roth, Germany).
In order to obtain the ABTS^•+ free radical reagent, equal volumes of solutions 1 and 2 were mixed for 16 h. The obtained reagent was kept in the dark; 1 mL of the obtained solution was brought to a 50 mL volumetric flask and diluted with ethanol so that the absorbance at λ = 734 nm would be 0.700 ± 0.02.
The tested compounds were dissolved and diluted similar to the previous antioxidant assay. […]
The following formula was used for the calculation of the ABTS^•+ free radical scavenger activity (%) Inhibition %=Abst=0min−Abst=6min/Abst=0min×100 where: Abst = ABTS^•+ solution absorbance in the absence (0 min)/presence (6 min) of the tested compounds.
as §4

Each structure is given as a SMILES string. In brackets after ≈: the same amount, converted by molar mass.

`O=C(Nc1ccccc1)ON=C1c2ccccc2-c2ccccc21` [Compound 1a, 9-(phenylcarbamoyloxymino)fluoren]: the MBC in the assay with C. albicans ATCC 90029 [1] is 5000 µg/mL (≈ 15.9 mM); in the assay on E. coli ATCC 25922, 2500 µg/mL (≈ 7.95 mM); in the assay on E. faecalis ATCC 29212 [2], 5000 µg/mL (≈ 15.9 mM); in the assay on P. aeruginosa ATCC 27853 it was 2500 µg/mL (≈ 7.95 mM); in the assay on S. aureus ATCC 25923 [3] it was 5000 µg/mL (≈ 15.9 mM). The “minimum biofilm inhibitory concentration (MBIC)” value in the assay on E. faecalis ATCC 29212 [4] came to 1.25 mg/mL; in the assay on S. aureus ATCC 25923 [5], 5 mg/mL; in the assay with C. albicans ATCC 90029 [6] it was 0.312 mg/mL. Also, the “staining index value (SI)” value in the assay with C. albicans ATCC 90029 [7] is 4.94. Also, the “DPPH free radical scavenger capacity” value in assay [8] (at 25 μM) is recorded as 12.66%; in [8] (at 1000 μM), 19.81%. Also, the IC50 in assay [8] was 5.7352 ± 8.28e-05 mM; in [9] it was 9.8854 ± 0.000251 mM.
Regarding `O=C(Nc1ccc(Cl)c(Cl)c1)ON=C1c2ccccc2-c2ccccc21` [Compound 1d, 9-((3,4-dichloro-phenyl)carbamoyloxymino)fluoren], the MBC with C. albicans ATCC 90029 [1] came to 10000 µg/mL (≈ 26.1 mM); with E. coli ATCC 25922, 5000 µg/mL (≈ 13 mM); in the assay with E. faecalis ATCC 29212 [2], 5000 µg/mL (≈ 13 mM); in the assay with P. aeruginosa ATCC 27853, 2500 µg/mL (≈ 6.52 mM); in the assay with S. aureus ATCC 25923 [3], 312 µg/mL (≈ 0.814 mM). Further, the results for the “minimum biofilm inhibitory concentration (MBIC)” value in the assay on E. faecalis ATCC 29212 [4], in the assay on S. aureus ATCC 25923 [5] and in the assay with C. albicans ATCC 90029 [6] were 1.25 mg/mL, 0.019 mg/mL and 0.312 mg/mL, respectively. Moreover, the “staining index value (SI)” value in the assay on C. albicans ATCC 90029 [7] came to 20.21.
In the case of `O=C(Nc1cccc(Cl)c1)ON=C1c2ccccc2-c2ccccc21` [Compound 1c, 9-((3-chloro-phenyl)carbamoyloxymino)fluoren], the MBC with C. albicans ATCC 90029 [1] was found to be 10000 µg/mL (≈ 28.7 mM); in the assay with E. coli ATCC 25922, 5000 µg/mL (≈ 14.3 mM); in the assay on E. faecalis ATCC 29212 [2], 5000 µg/mL (≈ 14.3 mM); with P. aeruginosa ATCC 27853, 2500 µg/mL (≈ 7.17 mM); with S. aureus ATCC 25923 [3] it was 5000 µg/mL (≈ 14.3 mM). For the same compound, the “minimum biofilm inhibitory concentration (MBIC)” value came out at 0.312 mg/mL in the assay with E. faecalis ATCC 29212 [4], 5 mg/mL in the assay on S. aureus ATCC 25923 [5] and 0.312 mg/mL with C. albicans ATCC 90029 [6]. The “DPPH free radical scavenger capacity” value in assay [8] (at 1000 μM) was 24.64%. Besides, the IC50 in assay [8] stood at 5.208 ± 0.000124 mM; in assay [9] it was 18.2 mM. For the same compound, the “ABTS•+ free radical scavenger activity” value in [9] (at 25 μM) worked out at 12.53%.
In the case of `Cc1cccc(NC(=O)ON=C2c3ccccc3-c3ccccc32)c1` [Compound 1b, 9-((3-methyl-phenyl)carbamoyloximino)fluoren], the MBC was determined as 10000 µg/mL (≈ 30.5 mM) with C. albicans ATCC 90029 [1]; 5000 µg/mL (≈ 15.2 mM) in the assay on E. coli ATCC 25922; 10000 µg/mL (≈ 30.5 mM) in the assay with E. faecalis ATCC 29212 [2]; 2500 µg/mL (≈ 7.61 mM) in the assay with P. aeruginosa ATCC 27853; 5000 µg/mL (≈ 15.2 mM) with S. aureus ATCC 25923 [3]. The “minimum biofilm inhibitory concentration (MBIC)” value in the assay with E. faecalis ATCC 29212 [4] is listed as 1.25 mg/mL; in the assay on S. aureus ATCC 25923 [5], 2.5 mg/mL; in the assay on C. albicans ATCC 90029 [6], 0.078 mg/mL. In addition, in the assay on C. albicans ATCC 90029 [7], the “staining index value (SI)” value stood at 2.82. For the same compound, the “DPPH free radical scavenger capacity” value in assay [8] (at 1000 μM) was determined as 16.29%. Besides, the IC50 in assay [8] worked out at 12.263 ± 5.74e-05 mM; in assay [9], 9.3794 ± 0.00102 mM. Besides, the “ABTS•+ free radical scavenger activity” value in [9] (at 1000 μM) was determined as 26.60%.
